According to patent US20250019377A1 (JACOBIO PHARMACEUTICALS CO., LTD, priority 2021, published 2025):

Columns and labels:
AGS cells (K-Ras G12D) = assay: 2D cell growth inhibition assay, AGS; format: cell-based; details: Homo sapiens, 144 h, 6 days, absolute IC50
[1] = test system: AsPC-1 cells (K-Ras G12D); assay: 2D cell growth inhibition assay, AsPC-1; format: cell-based; details: Homo sapiens, ASPC1, 144 h, AsPC-1, K-Ras G12D, 6 days, absolute IC50
SW620 cells (K-Ras G12V) = assay: 2D cell growth inhibition assay, SW620; format: cell-based; details: Homo sapiens, SW-620, 144 h, 6 days, absolute IC50
[2] = test system: p-ERK in SW620 cells (K-Ras G12V); assay: Phospho-ERK1/2(THR202/TYR204) HTRF assay, SW620; format: cell-based; details: Homo sapiens, SW-620, 2 h, 2 hours incubation
K-Ras G12V [3] = target: T1, K-Ras G12V (Homo sapiens, UniProt P01116, G12V); assay: biochemical
T1 sequence (P01116 1-169 isoform P01116-2 G12V): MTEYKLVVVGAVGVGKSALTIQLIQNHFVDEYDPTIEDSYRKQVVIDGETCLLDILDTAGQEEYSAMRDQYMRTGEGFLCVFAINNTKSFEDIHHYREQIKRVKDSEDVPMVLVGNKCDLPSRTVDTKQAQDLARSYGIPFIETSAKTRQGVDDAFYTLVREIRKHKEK

[4] = test system: p-ERK in AGS cells (K-Ras G12D); assay: Phospho-ERK1/2(THR202/TYR204) HTRF assay, AGS; format: cell-based; details: Homo sapiens, 2 h, 2 hours incubation
K-Ras G12V [5] = target: T1, K-Ras G12V; assay: SOS1 catalyzed nucleotide exchange assay (GDP form K-Ras), K-Ras G12V; details: read-out: K-Ras G12V GDP Biochemical Activity (IC50)

Row | SMILES | IC50 (AGS cells (K-Ras G12D)) [nM] | IC50 [1] [nM] | IC50 (SW620 cells (K-Ras G12V)) [nM] | IC50 [2] [nM] | IC50 (K-Ras G12V [3]) [nM] | IC50 [4] [nM] | IC50 (K-Ras G12V [5]) [nM]
1 | C#Cc1c(F)ccc2cc(O)cc(-c3ncc4c(N5CCCO[C@H]6C[C@H]65)nc(OC[C@@]56CCCN5C[C@H](F)C6)nc4c3F)c12 (single isomer, unassigned) [Compound 7A] | 175 | 1510 | 846 |  |  |  | 
2 | C#Cc1c(F)ccc2cc(O)cc(-c3ncc4c(N5CCCOCC5)nc(OC[C@H]5CCCN5C)nc4c3F)c12 [Compound 2, (R)-5-ethynyl-6-fluoro-4-(8-fluoro-2-((1-methylpyrrolidin-2-yl)methoxy)-4-(1,4-oxazepan-4-yl)pyrido[4,3-d]pyrimidin-7-yl)naphthalen-2-ol] | 178 | 293 | 182 |  | 207 |  | 4.99
3 | C#Cc1c(F)ccc2cc(O)cc(-c3ncc4c(N5CCOCC(=C)C5)nc(OC[C@@]56CCCN5C[C@H](F)C6)nc4c3F)c12 [Compound 24, 5-ethynyl-6-fluoro-4-(8-fluoro-2-(((2R,7aS)-2-fluorotetrahydro-1H-pyrrolizin-7a(5H)-yl)methoxy)-4-(6-methylene-1,4-oxazepan-4-yl)pyrido[4,3-d]pyrimidin-7-yl)naphthalen-2-ol] | 42.4 | 381 | 15.3 | 4.39 |  | 23.1 | 
4 | C#Cc1c(F)ccc2cc(O)cc(-c3ncc4c(N5CCOCC(=O)C5)nc(OC[C@@]56CCCN5C[C@H](F)C6)nc4c3F)c12 [Compound 30, 4-(7-(8-ethynyl-7-fluoro-3-hydroxynaphthalen-1-yl)-8-fluoro-2-(((2R,7aS)-2-fluorotetrahydro-1H-pyrrolizin-7a(5H)-yl)methoxy)pyrido[4,3-d]pyrimidin-4-yl)-1,4-oxazepan-6-one trifluoroacetic acid] |  |  |  | 3.97 |  | 2.04 | 
5 | C#Cc1cccc2cc(O)cc(-c3ncc4c(N5CCCOCC5)nc(OC[C@@]56CCCN5C[C@H](F)C6)nc4c3F)c12 [Compound 82] | 15.5 | 226 | 116 | 13.8 |  | 2.93 | 
6 | C#Cc1c(F)ccc2cc(O)cc(-c3ncc4c(N5CCOCC(COC)C5)nc(OC[C@@]56CCCN5C[C@H](F)C6)nc4c3F)c12 (stereo partly shown) [Compound 87] | 3.41 | 32.8 | 27.2 | 5.98 |  | 1.5 | 
7 | C#Cc1c(F)ccc2cc(O)cc(-c3ncc4c(N5CCOCC(C)(C)C5)nc(OC[C@@]56CCCN5C[C@H](F)C6)nc4c3F)c12 [Compound 102, 4-(4-(6,6-dimethyl-1,4-oxazepan-4-yl)-8-fluoro-2-(((2R,7aS)-2-fluorotetrahydro-1H-pyrrolizin-7a(5H)-yl)methoxy)pyrido[4,3-d]pyrimidin-7-yl)-5-ethynyl-6-fluoro-naphthalen-2-ol] |  |  |  | 47.1 |  | 192 | 
8 | C#Cc1c(F)ccc2cc(O)cc(-c3ncc4c(N5CCOCC6(CC6)C5)nc(OC[C@@]56CCCN5C[C@H](F)C6)nc4c3F)c12 [Compound 103, 5-ethynyl-6-fluoro-4-(8-fluoro-2-(((2R,7aS)-2-fluorotetrahydro-1H-pyrrolizin-7a(5H)-yl)methoxy)-4-(5-oxa-8-azaspiro[2.6]nonan-8-yl)pyrido[4,3-d]pyrimidin-7-yl) naphthalen-2-ol] |  |  | 109 | 187 |  |  | 
9 | C#Cc1c(F)ccc2c(F)c(O)cc(-c3ncc4c(N5CCCOCC5)nc(OC[C@@]56CCCN5C[C@H](F)C6)nc4c3F)c12 [Compound 107, 5-ethynyl-1,6-difluoro-4-(8-fluoro-2-(((2R,7aS)-2-fluorotetrahydro-1H-pyrrolizin-7a(5H)-yl)methoxy)-4-(1,4-oxazepan-4-yl)pyrido[4,3-d]pyrimidin-7-yl)naphthalen-2-ol] | 504 | 885 | 185 | 40.2 |  | 66.1 | 
10 | C#Cc1c(F)ccc2cc(O)cc(-c3ncc4c(N5[C@H]6COC[C@H](C)[C@@H]5C6)nc(OC[C@@]56CCCN5C[C@H](F)C6)nc4c3F)c12 [Compound 110, 5-ethynyl-6-fluoro-4-(8-fluoro-2-(((2R,7aS)-2-fluorotetrahydro-1H-pyrrolizin-7a(5H)-yl)methoxy)-4-((1R,5R,6S)-5-methyl-3-oxa-7-azabicyclo[4.1.1]octan-7-yl)pyrido [4,3-d]pyrimidin-7-yl)naphthalen-2-ol] |  |  | 81 | 62.2 | > 1000 | 44.3 | 6.63
11 | Oc1cc(-c2ncc3c(N4CCCOCC4)nc(OC[C@@]45CCCN4C[C@H](F)C5)nc3c2F)c2ccccc2c1 [Compound 118, 4-(8-fluoro-2-(((2R,7aS)-2-fluorotetrahydro-1H-pyrrolizin-7a(5H)-yl)methoxy)-4-(1,4-oxazepan-4-yl)pyrido[4,3-d]pyrimidin-7-yl)naphthalen-2-ol] | 184 | 1420 | 343 | 110 |  | 113 | 

Results, then the compound that gave them:

Row | IC50 (AGS cells (K-Ras G12D)) [nM] | IC50 [1] [nM] | IC50 (SW620 cells (K-Ras G12V)) [nM] | IC50 [2] [nM] | IC50 (K-Ras G12V [3]) [nM] | IC50 [4] [nM] | IC50 (K-Ras G12V [5]) [nM] | SMILES
12 | 18.6 | 133 | 39.5 | 19.4 | 35.7 | 2.31 | 1.47 | C#Cc1c(F)ccc2cc(O)cc(-c3ncc4c(N5CCCOCC5C)nc(OC[C@@]56CCCN5C[C@H](F)C6)nc4c3F)c12 (mixture of isomers) [Compound 16, 5-ethynyl-6-fluoro-4-(8-fluoro-2-(((2R,7aS)-2-fluorotetrahydro-1H-pyrrolizin-7a(5H)-yl)methoxy)-4-(3-methyl-1,4-oxazepan-4-yl)pyrido[4,3-d]pyrimidin-7-yl)naphthalen-2-ol trifluoroacetic acid]
13 | 2.23 | 18.2 | 6.63 | 3.36 | 29.2 | 1.33 | 2.31 | C#Cc1c(F)ccc2cc(O)cc(-c3ncc4c(N5CCCO[C@@H]6C[C@@H]65)nc(OCC5(CN6CCOCC6)CC5)nc4c3F)c12 (single isomer, unassigned) [Compound 28B]
14 | 186 | 586 | 171 | 15.4 |  | 66.2 |  | C#Cc1c(F)ccc2cc(O)cc(-c3ncc4c(N5CCCOCC5)nc(OCC56CCCN5CC(F)(F)C6)nc4c3F)c12 (stereo not shown) [Compound 9, 4-(2-((2,2-difluorotetrahydro-1H-pyrrolizin-7a(5H)-yl)methoxy)-8-fluoro-4-(1,4-oxazepan-4-yl)pyrido[4,3-d]pyrimidin-7-yl)-5-ethynyl-6-fluoronaphthalen-2-ol]
15 | 8.22 | 53.6 | 4.62 | 7.74 |  | 3.3 |  | C#Cc1c(F)c(F)cc2cc(O)cc(-c3ncc4c(N5CCCOCC5)nc(OC[C@@]56CCCN5C[C@H](F)C6)nc4c3F)c12 [Compound 29]
16 | 248 | 1850 | 76.3 | 21.8 |  | 101 |  | C#Cc1c(F)ccc2cc(O)cc(-c3ncc4c(N5CCOCCC56CC6)nc(OC[C@@]56CCCN5C[C@H](F)C6)nc4c3F)c12 [Compound 43, 5-ethynyl-6-fluoro-4-(8-fluoro-2-(((2R,7aS)-2-fluorotetrahydro-1H-pyrrolizin-7a(5H)-yl)methoxy)-4-(7-oxa-4-azaspiro[2.6]nonan-4-yl)pyrido[4,3-d]pyrimidin-7-yl)naphthalen-2-ol trifluoroacetic acid]
17 |  |  |  | 121 |  |  |  | C#Cc1c(F)ccc2cc(O)cc(-c3ncc4c(N5CCCOCC56CC6)nc(OC[C@@]56CCCN5C[C@H](F)C6)nc4c3F)c12 [Compound 50, 5-ethynyl-6-fluoro-4-(8-fluoro-2-(((2R,7aS)-2-fluorotetrahydro-1H-pyrrolizin-7a(5H)-yl)methoxy)-4-(8-oxa-4-azaspiro[2.6]nonan-4-yl)pyrido[4,3-d]pyrimidin-7-yl)naphthalen-2-ol trifluoroacetic acid]
18 |  |  |  | 275 |  |  |  | C#Cc1c(F)ccc2cc(O)cc(-c3ncc4c(N5CC6COCC5C6)nc(OC[C@@]56CCCN5C[C@H](F)C6)nc4c3F)c12 (stereo partly drawn) [Compound 94, 4-(4-(3-oxa-6-azabicyclo[3.2.1]octan-6-yl)-8-fluoro-2-(((2R,7aS)-2-fluorotetrahydro-1H-pyrrolizin-7a(5H)-yl)methoxy)pyrido [4,3-d]pyrimidin-7-yl)-5-ethynyl-6-fluoro naphthalen-2-ol]
19 | 98.1 | 681 | 66.4 | 21.5 |  | 39.4 |  | C#Cc1c(F)ccc2cc(O)cc(-c3ncc4c(N5CC(OC)COCC5C)nc(OC[C@@]56CCCN5C[C@H](F)C6)nc4c3F)c12 (stereo partly drawn) [Compound 106, 5-ethynyl-6-fluoro-4-(8-fluoro-2-(((2R,7aS)-2-fluorotetrahydro-1H-pyrrolizin-7a(5H)-yl)methoxy)-4-(6-methoxy-3-methyl-1,4-oxazepan-4-yl)pyrido[4,3-d]pyrimidin-7-yl)naphthalen-2-ol]
20 | 133 | 237 | 163 | 27.9 |  | 46.5 |  | C#Cc1c(F)ccc2cccc(-c3ncc4c(N5CCCOC6CC65)nc(OC[C@@]56CCCN5C[C@H](F)C6)nc4c3F)c12 (stereo partly drawn) [Compound 115, 6-(7-(8-ethynyl-7-fluoronaphthalen-1-yl)-8-fluoro-2-(((2R,7aS)-2-fluorotetrahydro-1H-pyrrolizin-7a(5H)-yl)methoxy)pyrido [4,3-d]pyrimidin-4-yl)-2-oxa-6-azabicyclo [5.1.0]octane]
